Test system: GFAP, Connexin43, Iba-1
Assay: Immunohistochemical labelling of GFAP, Iba-1 and Connexin43 in hyperglycemic rat retina
Type: in vivo, SD rats (spontaneously hyperglycemic strain)
Conditions: dosed daily for 14 days, 8 weeks of age
Procedure: Ten rats per group were the selected (10 normal SD and 10 hyperglycemic) grown to 5 weeks of age and assessed using OCT and ERG. The hyperglycemic rat group was then split into two subgroups of five, with one subgroup fed tonabersat once daily for 14 days from weeks 5 to 7 at a low dose level of 0.28 mg/kg in 0.5 g peanut butter, with the other subgroup fed 0.5 g peanut butter only. All animals were assessed again using ERG and OCT at 8 weeks of age before euthanizing animals and removing the eyes for immunohistochemical analysis. Data groups were randomized prior to the statistical comparison. In summary, normal SD and hyperglycemic rats were analyzed with OCT and ERG at 5 weeks of age; the hyperglycemic rats were then split into two groups and fed the vehicle or tonabersat for 14 days during weeks 6 and 7 of age. At week 8, animals were again assessed with ERG and OCT and tissues collected for immunohistochemical analysis. Four tonabersat-treated rats were, however, left until 3 months of age before final ERG and OCT and tissue collection.
Tissue Collection and Processing—At the end of the final OCT recording rats was deeply anesthetized using a combination of ketamine (75 mg/kg, Parnell Technologies, New Zealand) and domitor (0.5 mg/kg, Pfizer, New Zealand). Animals were perfused transcardially with saline for 2-3 min followed by 30 min perfusion with 4% paraformaldehyde in a 0.1 M phosphate buffer, pH 7.4 (PB). Eyes were dissected from the orbit and the eyecups further immersion fixed in 4% paraformaldehyde, 30 min before washing in PB. Tissues were then cryo-protected by taking them though 10% and 20% sucrose/PB solutions at room temperature for 30 min each, before soaking in 30% sucrose/PB at 4° C. overnight. The tissue was then embedded in optimum cutting temperature compound (Sakura Finetek, Torrance, USA) for cryosectioning (16 μm section thickness) in the vertical plane using a Leica CM3050 S cryostat (Leica, Germany). Sections were collected on Superfrost Plus slides (Labserv, New Zealand) for immunohistochemical labelling. For the DR animals we collected spleen, pancreas, liver, heart and kidneys from randomly selected vehicle-injected animals (see supplementary information).
Immunohistochemical Labelling of Tissue Sections—Frozen tissue sections were air-dried at room temperature for 10-15 min and washed with 0.1 M PB. Sections were encircled with a PAP pen (Invitrogen, New Zealand) to form incubation wells and blocked with 6% normal goat serum or donkey serum (Invitrogen, USA), 1% bovine serum albumin (BSA) and 0.5% Triton X-100 in 0.1 M PB for 1 hour at room temperature. […]

[1] = significantly less than untreated, p<0.001

SMILES: CC(=O)c1ccc2c(c1)[C@H](NC(=O)c1ccc(F)c(Cl)c1)[C@H](O)C(C)(C)O2 [tonabersat, N-[(3S,4S)-6-acetyl-3-hydroxy-2,2-dimethyl-3,4-dihydrochromen-4-yl]-3-chloro-4-fluorobenzamide]
- inflammation (labeling for GFAP, Iba-1, Connexin43): reduced inflammation
- Connexin43 labelling, quantification [1]: recovering to normal
- GFAP labelling, quantification [1]: recovering to normal
- Iba-1 labelling, quantification [1]: recovering to normal

Reference: patent US20220401408A1, “COMPOSITIONS AND METHODS FOR RESCUING RETINAL AND CHOROIDAL STRUCTURE AND FUNCTION” (AUCKLAND UNISERVICES LIMITED, priority 2019, published 2022)
